The record followed here is patent US10722514B2 (FLX Bio, Inc., priority 2017, dated 2020).

For this experiment, the target named is T1, recombinant full-length USP7 (Homo sapiens, UniProt Q93009).
T1 construct: A 25 μl reaction volume containing recombinant full-length USP7 (62 pM)
Kind of experiment: USP7-mediated ubiquitin-rhodamine cleavage assay. As to conditions: recombinant full-length USP7 62 pM, ubiquitin-rhodamine 100 nM, 1 hour reaction at room temperature. The class given is biochemical. The method, boiled down:
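Full-length recombinant USP7 (62 pM) in 20 mM HEPES pH 7.3, 150 mM NaCl, 1 mM TCEP, 125 μg/ml BSA, 1% DMSO, preincubated with compound 30 min at RT. Ubiquitin-rhodamine (100 nM final) cleaved 1 h at RT in the dark, stopped with acetic acid; rhodamine fluorescence read, IC50 by 4-parameter nonlinear fit.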

[1] abbreviates: 30-minute incubation with compound, read-out: Potency: USP7 IC50.
The mark [2] stands for this setting: 30-minute pre-incubation, read-out: Potency (USP7 IC50).

Read-outs that look alike come from different tables or passages of the source. Bounds are passed on as bounds.

T1 sequence (Q93009 whole entry): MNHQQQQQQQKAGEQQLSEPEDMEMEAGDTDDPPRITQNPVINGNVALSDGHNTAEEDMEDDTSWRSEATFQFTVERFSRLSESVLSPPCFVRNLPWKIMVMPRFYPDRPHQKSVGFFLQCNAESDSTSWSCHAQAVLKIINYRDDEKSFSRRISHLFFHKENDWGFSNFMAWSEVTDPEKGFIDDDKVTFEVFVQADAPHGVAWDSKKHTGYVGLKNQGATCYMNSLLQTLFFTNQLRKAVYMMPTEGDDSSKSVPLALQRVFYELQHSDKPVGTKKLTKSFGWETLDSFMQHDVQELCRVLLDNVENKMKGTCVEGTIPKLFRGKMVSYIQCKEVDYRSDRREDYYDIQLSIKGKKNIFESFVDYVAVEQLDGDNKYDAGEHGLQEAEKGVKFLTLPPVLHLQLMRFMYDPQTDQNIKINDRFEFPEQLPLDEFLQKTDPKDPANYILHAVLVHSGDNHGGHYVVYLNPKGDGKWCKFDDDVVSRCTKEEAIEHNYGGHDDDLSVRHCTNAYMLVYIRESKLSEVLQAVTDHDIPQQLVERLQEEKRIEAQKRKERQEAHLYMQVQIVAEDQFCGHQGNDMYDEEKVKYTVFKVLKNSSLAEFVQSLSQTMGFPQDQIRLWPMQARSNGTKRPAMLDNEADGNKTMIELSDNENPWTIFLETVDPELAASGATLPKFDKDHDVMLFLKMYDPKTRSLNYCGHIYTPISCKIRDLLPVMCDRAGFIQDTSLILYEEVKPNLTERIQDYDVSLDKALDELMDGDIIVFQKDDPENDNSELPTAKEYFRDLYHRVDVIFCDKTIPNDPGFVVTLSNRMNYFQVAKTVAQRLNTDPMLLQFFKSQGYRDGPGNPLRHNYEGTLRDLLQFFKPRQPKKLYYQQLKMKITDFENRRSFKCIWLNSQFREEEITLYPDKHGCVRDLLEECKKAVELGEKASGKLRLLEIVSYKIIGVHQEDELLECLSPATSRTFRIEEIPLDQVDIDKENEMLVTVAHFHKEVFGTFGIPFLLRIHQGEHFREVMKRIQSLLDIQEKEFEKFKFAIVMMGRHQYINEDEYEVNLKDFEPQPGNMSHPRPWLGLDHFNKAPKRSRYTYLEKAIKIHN

The IC50 is the concentration that gives 50% inhibition. In the case of `Cc1cc(Cl)cc(-c2ccnc3cc(CN4C(=O)C5CC5C4=O)sc23)c1OC1CCNC1C` (stereo not drawn) [Example 301, 3-[[7-[5-chloro-3-methyl-2-(2-methylpyrrolidin-3-yl)oxy-phenyl]thieno[3,2-b]pyridin-2-yl]methyl]-3-azabicyclo[3.1.0]hexane-2,4-dione; 2,2,2-trifluoroacetic acid], under setting [1], the 50% inhibitory concentration (IC50) was less than 1000 nM. On to `Cc1cc(Cl)cc(-c2ccnc3cc(Cn4c(=O)ccn(C)c4=O)sc23)c1OC1CC[C@H](C)NC1` (stereo partly drawn) [Example 523, 3-[[7-[5-chloro-3-methyl-2-[[(6S)-6-methyl-3-piperidyl]oxy]phenyl]thieno[3,2-b]pyridin-2-yl]methyl]-1-methyl-pyrimidine-2,4-dione; 2,2,2-trifluoroacetic acid], for which the IC50 under setting [2] was less than 1000 nM. Regarding `Cc1cc(Cl)cc(-c2ccnc3cc(CO)sc23)c1OCC1CNC1` [Example 19, (7-(2-(Azetidin-3-ylmethoxy)-5-chloro-3-methylphenyl)thieno[3,2-b]pyridin-2-yl)methanol], under setting [1], the IC50 is 1000 to 10000 nM. Take `Cc1cc(Cl)cc(-c2ccnc3cc(Cn4c(=O)ccn(CC(F)(F)F)c4=O)sc23)c1O[C@@H]1C[C@@H]2C[C@H]1CN2` [Example 637, 3-[[7-[2-[[(1S,4S,5R)-2-azabicyclo[2.2.1]heptan-5-yl]oxy]-5-chloro-3-methyl-phenyl]thieno[3,2-b]pyridin-2-yl]methyl]-1-(2,2,2-trifluoroethyl)pyrimidine-2,4-dione; 2,2,2-trifluoroacetic acid]: the IC50 under setting [2] was less than 1000 nM. Still for that read-out and setting: the same measure for `Cc1cc(Cl)cc(-c2ncnc3cc(Cn4c(=O)ccn(CC(F)(F)F)c4=O)sc23)c1OC1CC(N)C1` (stereo not drawn) [Example 534, 3-[[4-[2-(3-aminocyclobutoxy)-5-chloro-3-methyl-phenyl]thieno[3,2-d]pyrimidin-6-yl]methyl]-1-(2,2,2-trifluoroethyl)pyrimidine-2,4-dione; 2,2,2-trifluoroacetic acid]: less than 1000 nM.

Turning to `Cc1cc(Cl)cc(-c2ccnc3cc(Cn4c(=O)ccn(CC(F)(F)F)c4=O)sc23)c1OCC1COCCN1` (stereo not drawn) [Example 646, 3-[[7-[5-chloro-3-methyl-2-(morpholin-3-ylmethoxy)phenyl]thieno[3,2-b]pyridin-2-yl]methyl]-1-(2,2,2-trifluoroethyl)pyrimidine-2,4-dione; 2,2,2-trifluoroacetic acid], the IC50 under setting [2] was less than 1000 nM.

Take `Cc1cc(Cl)cc(-c2ccnc3cc(CN4C(=O)C5C(C4=O)C5(C)C)sc23)c1O[C@@H]1CNCC[C@@H]1C` (stereo partly drawn) [Example 340, 3-[[7-[5-chloro-3-methyl-2-[[(3S,4S)-4-methyl-3-piperidyl]oxy]phenyl]thieno[3,2-b]pyridin-2-yl]methyl]-6,6-dimethyl-3-azabicyclo[3.1.0]hexane-2,4-dione]: the half-inhibitory concentration (IC50) under setting [1] is less than 1000 nM. As for `Cc1cc(Cl)cc(-c2ncnc3cc(CN4C(=O)COC4=O)sc23)c1OC1CCNCC1` [Example 225, 3-((4-(5-Chloro-3-methyl-2-(piperidin-4-yloxy)phenyl)thieno[3,2-d]pyrimidin-6-yl)methyl)oxazolidine-2,4-dione], the concentration for half-maximal inhibition (IC50) under setting [1] is 1000 to 10000 nM.

`Cc1cc(Cl)cc(-c2ccnc3cc(CN4C(=O)CCC4=O)sc23)c1O[C@@H]1CN[C@@H]2COC[C@@H]21` [Example 430, 1-[[7-[2-[[(3S,3aR,6aS)-2,3,3a,4,6,6a-hexahydro-1H-furo[3,4-b]pyrrol-3-yl]oxy]-5-chloro-3-methyl-phenyl]thieno[3,2-b]pyridin-2-yl]methyl]pyrrolidine-2,5-dione]: the IC50 under setting [2] was less than 1000 nM. With `Cc1cc(Cl)cc(-c2ccnc3cc(Cn4c(=O)ccn(CC(F)(F)F)c4=O)sc23)c1OC1CNC1` [Example 61, 3-((7-(2-(Azetidin-3-yloxy)-5-chloro-3-methylphenyl)thieno[3,2-b]pyridin-2-yl)methyl)-1-(2,2,2-trifluoroethyl)pyrimidine-2,4(1H,3H)-dione], the IC50 under setting [1] was less than 1000 nM. In the case of `Cc1cc(Cl)cc(-c2ccnc3cc(Cn4c(=O)ccn(C)c4=O)sc23)c1O[C@@H]1CCN[C@@H](C)C1` [Example 495, 3-[[7-[5-chloro-3-methyl-2-[[(2S,4R)-2-methyl-4-piperidyl]oxy]phenyl]thieno[3,2-b]pyridin-2-yl]methyl]-1-methyl-pyrimidine-2,4-dione], the IC50 under setting [2] is less than 1000 nM. In the case of `Cc1cc(Cl)cc(-c2ccnc3cc(CO)sc23)c1O[C@@H]1CN[C@H](C(C)(C)O)C1` [Example 72, 2-((2S,4S)-4-(4-Chloro-2-(2-(hydroxymethyl)thieno[3,2-b]pyridin-7-yl)-6-methylphenoxy)pyrrolidin-2-yl)propan-2-ol], the IC50 under setting [1] was in the range of 1000 to 10000 nM. On to `Cc1cc(Cl)cc(-c2ccnc3cc(Cn4c(=O)ccn(CC(F)(F)F)c4=O)sc23)c1O[C@@H]1CN(C2CC(C(F)(F)F)C2)C[C@@H]1C` (stereo partly drawn) [Example 644, 3-[[7-[5-chloro-3-methyl-2-[(3S,4S)-4-methyl-1-[3-(trifluoromethyl)cyclobutyl]pyrrolidin-3-yl]oxy-phenyl]thieno[3,2-b]pyridin-2-yl]methyl]-1-(2,2,2-trifluoroethyl)pyrimidine-2,4-dione], for which the half-maximal inhibitory concentration (IC50) under setting [2] is less than 1000 nM. Take “3-[[7-[5-chloro-2-[2-(3-hydroxyazetidin-1-yl)ethoxy]-3-methyl-phenyl]thieno[3,2- [Example 667]”: the IC50 under setting [2] was less than 1000 nM. As to `Cc1cc(Cl)cc(-c2ccnc3cc(CO)sc23)c1O[C@@H]1CC[C@@H](N(C)C)C1` [Example 93, (7-(5-Chloro-2-(((1R,3R)-3-(dimethylamino)cyclopentyl)oxy)-3-methylphenyl)thieno[3,2-b]pyridin-2-yl)methanol], the IC50 under setting [1] lay within 10000 to 30000 nM.

Regarding `Cc1cc(Cl)cc(-c2ccnc3cc(CN4C(=O)C[C@@H](F)C4=O)sc23)c1OC1CCNCC1` [Example 414, (3R)-1-[[7-[5-chloro-3-methyl-2-(4-piperidyloxy)phenyl]thieno[3,2-b]pyridin-2-yl]methyl]-3-fluoro-pyrrolidine-2,5-dione], under setting [2], the IC50 is less than 1000 nM.

As for `OCc1cc2nccc(-c3cc(Cl)cc(Br)c3OCC3CNC3)c2s1` [Example 21, (7-(2-(Azetidin-3-ylmethoxy)-3-bromo-5-chlorophenyl)thieno[3,2-b]pyridin-2-yl)methanol], the IC50 under setting [1] lay within 1000 to 10000 nM. In the case of `CC(=O)N[C@H]1CNC[C@H]1Oc1c(C)cc(Cl)cc1-c1ccnc2cc(CO)sc12` [Example 84, N-((3S,4R)-4-(4-Chloro-2-(2-(hydroxymethyl)thieno[3,2-b]pyridin-7-yl)-6-methylphenoxy)pyrrolidin-3-yl)acetamide], the IC50 under setting [1] was in the range of 10000 to 30000 nM.

`Cc1cc(Cl)cc(-c2ccnc3cc(Cn4c(=O)ccn(CC(F)(F)F)c4=O)sc23)c1OC1CC2(COCCN2)C1` (stereo not drawn) [Example 698, 3-[[7-[5-chloro-3-methyl-2-(8-oxa-5-azaspiro[3.5]nonan-2-yloxy)phenyl]thieno[3,2-b]pyridin-2-yl]methyl]-1-(2,2,2-trifluoroethyl)pyrimidine-2,4-dione]: the IC50 (30-minute incubation, read-out: Potency (USP7 IC50)) was less than 1000 nM. As to `Cc1cc(Cl)cc(-c2ccnc3cc(CN4C(=O)C5C(C4=O)C5(C)C)sc23)c1O[C@H]1CC[C@H](C)NC1` (stereo partly drawn) [Example 399, 3-[[7-[5-chloro-3-methyl-2-[[(3S,6S)-6-methyl-3-piperidyl]oxy]phenyl]thieno[3,2-b]pyridin-2-yl]methyl]-6,6-dimethyl-3-azabicycllo[3.1.0]hexane-2,4-dione; 2,2,2-trifluoroacetic acid], under setting [1], the IC50 was less than 1000 nM. Regarding `Cc1cc(Cl)cc(-c2ccnc3cc(Cn4c(=O)ccn(C)c4=O)sc23)c1OC1CC2CC1N(C)C2` (stereo not drawn) [Example 465], the IC50 under setting [2] is less than 1000 nM.
